Experimental data from publication PMC11124362, “Metabolism, Disposition, Excretion, and Potential Transporter Inhibition of 7–16, an Improving 5-HT2A Receptor Antagonist and Inverse Agonist for Parkinson’s Disease” (Molecules, 2024).

Legend:
CYP2C19 = tested on: CYP2C19; design: method as in PMID 35279606; conditions: previous study; read-out: CYP2C19 inhibition IC50; cited from earlier work
5-HT2A receptors = tested on: 5-HT2A receptors; design: method as in PMID 35279606; conditions: head twitches test in rats; cited from earlier work
CYP1A2 [1] = assay: Metabolic phenotype by rhCYP isozymes, CYP1A2; type: in vitro ADME, human; conditions: 7–16 1 µM
Description: (§1) Based on the result of metabolite identification, two metabolites were selected as targets for metabolic phenotyping analysis. Seven CYP isozymes (CYP1A2, CYP2B6, CYP2C8, CYP2C9, CYP2C19, CYP2D6, and CYP3A4) were investigated using the rhCYP isozymes method. In brief, 7–16 (1 µΜ) was incubated with each rhCYP isozyme ([…]) in 100 mM sodium phosphate buffer (pH 7.4) containing 3 mM magnesium chloride. After 10 min of preincubation at 37 °C, the reactions were initiated by adding NADPH (1 mM) and then incubated at 37 °C in a shaking water bath for 0, 5, 15, and 30 min. The specific substrates of each rhCYP isozyme were incubated as the above method to confirm the activity of the incubation system. The samples were prepared in triplicates. The reactions were terminated by adding three times the volume of ice-cold acetonitrile (600 µL) and stored at −20 °C until analysis. After pre-treatment, the samples were determined by the LC–MS/MS (Shimadzu Exion-Triple Quad 4500) method. The relative contribution rate of each isozyme to the metabolism of 7–16 was evaluated in HLMs using the following formula: Contributionx% = Vx × Abundancex (pmol/mg protein)/Σ(Vi × Abundancei). Vx (µL/min/pmol) is the production rate of metabolites for each rhCYP isozyme.

OAT1 = molecular target: T1, OAT1 (Homo sapiens, UniProt Q4U2R8); assay: OAT1 inhibitor assay in HEK293 cells; type: in vitro ADME; conditions: substrate p-Aminohippurate, read-out: Inhibition IC50, OAT1
T1 construct: host or cells: HEK293
T1 sequence (Q4U2R8 1-563): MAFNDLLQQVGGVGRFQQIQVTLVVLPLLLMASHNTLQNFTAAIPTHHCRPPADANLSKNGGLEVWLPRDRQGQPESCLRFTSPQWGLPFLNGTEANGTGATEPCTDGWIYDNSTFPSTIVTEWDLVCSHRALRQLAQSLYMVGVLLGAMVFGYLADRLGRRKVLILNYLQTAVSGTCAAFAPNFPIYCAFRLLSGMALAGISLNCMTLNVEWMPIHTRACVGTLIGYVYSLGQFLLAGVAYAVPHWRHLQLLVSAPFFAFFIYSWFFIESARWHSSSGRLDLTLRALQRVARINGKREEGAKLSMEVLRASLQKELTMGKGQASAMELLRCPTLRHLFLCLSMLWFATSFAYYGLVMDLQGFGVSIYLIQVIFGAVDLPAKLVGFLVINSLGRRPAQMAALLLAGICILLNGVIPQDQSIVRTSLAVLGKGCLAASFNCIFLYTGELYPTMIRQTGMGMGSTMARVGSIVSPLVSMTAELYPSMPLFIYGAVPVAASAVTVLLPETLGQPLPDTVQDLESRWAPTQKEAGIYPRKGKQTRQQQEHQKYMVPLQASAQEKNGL

5-HT2A receptor = molecular target: 5-HT2A receptor; design: method as in PMID 35279606; conditions: cited from earlier work
[2] = Metabolite identification in rat liver microsomes; type: in vitro ADME; conditions: 7–16 10 µM, liver microsomes 1 mg/mL, NADPH, 37 °C, 60 min
Description: (§2) In accordance with our previous methods, 7–16 (10 µM) was incubated with mouse, rat, dog, monkey, and human liver microsome proteins (1 mg/mL) in 100 mM sodium phosphate buffer (pH 7.4) containing 10 mM magnesium chloride and 2 mM NADPH at 37 °C for 60 min. All samples were prepared in duplicates. The reactions were terminated by adding three times the volume of ice-cold acetonitrile (600 µL) and stored at −20 °C until analysis. Control samples without NADPH and 0-time point samples were included. As a positive control, testosterone (10 µM), which was metabolized to produce the hydroxylation metabolite, was used as a substrate to confirm the activity of the incubation system.
(§3) After pre-treatments, the samples were analyzed by an Acquity UPLC system coupled with a diode array detector (Waters Corporation, Milford, MA, USA) and Q Exactive HRMS (Thermo Electron Corporation, Waltham, MA, USA) (UPLC–UV-Q Exactive HRMS). Samples were separated on an Agilent XDB C18 column (150 × 2.1 mm i.d. 3.5 μm, Agilent Corporation, Santa Clara, CA, USA) at 40 °C by gradient elution with water and acetonitrile containing 0.1% formic acid. The flow rate was 0.40 mL/min. The ultraviolet (UV) detection wavelength was 286 nm. Q Exactive HRMS were operated at positive ion mode (3.5 kV) using a heating electrospray ionization source. Mass calibration was required to be performed before conducting experiments so as to achieve the best mass accuracy and mass calibration should be performed every five days. The metabolites were detected by full MS/dd-MS^2 analysis from m/z 100 to m/z 1000. The resolution of the first-class scan and second-class scan was 70,000 and 17,500, respectively. Thermo Compound Discover software was used to identify expected and unknown metabolites, and we finally proposed the 7–16 metabolic pathways based on the deduced metabolites and relevant drug biotransformation knowledge.

[3] = Metabolite identification in dog liver microsomes; type: in vitro ADME; conditions: 7–16 10 µM, liver microsomes 1 mg/mL, NADPH, 37 °C, 60 min
Description: as §2, §3

CYP2D6 [4] = assay: Metabolic phenotype by rhCYP isozymes, CYP2D6; type: in vitro ADME, human; conditions: 7–16 1 µM
Description: as §1

CYP2D6 [5] = tested on: CYP2D6; design: method as in PMID 35279606; conditions: previous study; read-out: CYP2D6 inhibition IC50; cited from earlier work
[6] = Metabolite identification in mouse liver microsomes; type: in vitro ADME; conditions: 7–16 10 µM, liver microsomes 1 mg/mL, NADPH, 37 °C, 60 min
Description: as §2, §3

P-gp = molecular target: T2, P-gp (Homo sapiens, UniProt P08183); assay: P-gp inhibitor assay in MDR1-MDCKII cells; type: in vitro ADME; conditions: substrate Digoxin 10.0 µM, efflux ratio, read-out: Inhibition IC50, P-gp
T2 construct: expressed in transfected cells; host or cells: MDR1-MDCKII (Madin-Darby canine kidney cells)
T2 sequence (P08183 whole entry): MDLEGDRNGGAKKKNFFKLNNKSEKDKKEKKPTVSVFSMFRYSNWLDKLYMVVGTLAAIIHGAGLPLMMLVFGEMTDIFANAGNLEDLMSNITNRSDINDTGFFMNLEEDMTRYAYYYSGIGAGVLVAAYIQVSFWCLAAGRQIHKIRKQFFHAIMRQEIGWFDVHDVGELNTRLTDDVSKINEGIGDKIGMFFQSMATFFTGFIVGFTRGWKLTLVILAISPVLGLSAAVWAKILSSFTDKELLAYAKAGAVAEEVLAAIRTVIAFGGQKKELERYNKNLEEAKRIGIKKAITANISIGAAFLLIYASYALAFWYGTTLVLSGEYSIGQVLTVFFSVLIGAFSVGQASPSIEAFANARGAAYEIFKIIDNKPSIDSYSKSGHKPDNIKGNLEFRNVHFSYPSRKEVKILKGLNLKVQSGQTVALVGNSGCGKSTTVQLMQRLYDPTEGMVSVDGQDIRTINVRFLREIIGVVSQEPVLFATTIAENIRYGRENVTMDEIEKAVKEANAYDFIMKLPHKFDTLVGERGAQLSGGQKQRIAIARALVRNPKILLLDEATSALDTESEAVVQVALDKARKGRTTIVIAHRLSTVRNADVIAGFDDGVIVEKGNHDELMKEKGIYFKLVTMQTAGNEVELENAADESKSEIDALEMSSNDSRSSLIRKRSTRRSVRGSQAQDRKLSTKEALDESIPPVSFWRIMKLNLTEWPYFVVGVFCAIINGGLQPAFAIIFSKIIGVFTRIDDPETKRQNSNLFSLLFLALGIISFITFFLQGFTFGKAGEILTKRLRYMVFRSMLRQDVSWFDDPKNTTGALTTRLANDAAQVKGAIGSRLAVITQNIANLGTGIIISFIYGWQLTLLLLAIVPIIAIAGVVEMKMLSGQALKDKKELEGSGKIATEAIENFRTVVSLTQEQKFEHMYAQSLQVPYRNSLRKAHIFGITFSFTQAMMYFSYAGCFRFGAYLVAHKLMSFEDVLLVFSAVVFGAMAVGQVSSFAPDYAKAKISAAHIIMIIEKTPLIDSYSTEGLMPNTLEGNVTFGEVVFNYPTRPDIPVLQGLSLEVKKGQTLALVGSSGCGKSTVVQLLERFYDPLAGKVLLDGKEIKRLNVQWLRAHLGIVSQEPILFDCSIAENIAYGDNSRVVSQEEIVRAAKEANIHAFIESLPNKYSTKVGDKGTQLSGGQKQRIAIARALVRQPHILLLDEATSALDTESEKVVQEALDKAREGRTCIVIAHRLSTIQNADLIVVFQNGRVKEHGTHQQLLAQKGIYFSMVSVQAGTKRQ

CYP1A2 [7] = tested on: CYP1A2; design: method as in PMID 35279606; conditions: previous study; read-out: CYP1A2 inhibition IC50; cited from earlier work

CN1CCC(N(Cc2ccc(F)cn2)C(=O)NCc2ccc(OCC(F)(F)F)cc2)CC1 [7–16, 3-(4-(2,2,2-trifluoroethoxy)benzyl)-1-((5-fluoropyridin-2-yl)methyl)-1-(1-methylpiperidin-4-yl) urea]
IC50 (CYP2C19): > 62.9 µM | potency for blocking 5-HT2A receptors relative to pimavanserin (5-HT2A receptors): at least four times more potent than pimavanserin | relative contribution of CYP1A2 to metabolism (CYP1A2 [1]): little or no contribution | IC50 (OAT1): > 100 µM | IC50 (5-HT2A receptor; previous study, read-out: 5-HT2A inverse agonist activity IC50): 0.0021 µM | fold higher inverse agonist activity than pimavanserin (5-HT2A receptor; versus pimavanserin): 23 fold | Relative Abundance, UV Area% Rat [2]: 86.1% | Relative Abundance, UV Area% Dog [3]: 77.2% | relative contribution of CYP2D6 to metabolism (CYP2D6 [4]): little or no contribution | IC50 (CYP2D6 [5]): > 62.9 µM | Relative Abundance, UV Area% Mouse [6]: 91.3% | IC50 (P-gp): 30.6 µM | IC50 (CYP1A2 [7]): 8.5 µM
